From patent US7157083B2, “Compositions and methods for treating retroviral infections” (priority 1998, dated 2007)

Test system: clinical isolate ROJO (low passage HIV-1) in human PBMCs
Assay: Study 1 PBMC assay: reverse transcriptase activity after ROJO infection (Treatments A, B, C)
Format: cell-based
Procedure: Percent virus control (% VC) in the following tables is the mean RT activity (cpm) as a percentage of a virus control. Percent cell control (% CC) is the mean XTT absorbance as a percentage of a cell control.
Peripheral blood monocular cells (PBMCs) are obtained from normal hepatitis and HIV-1 negative donors by ficoll hypaque gradient separation. Briefly, anti-coagulated blood is diluted 1:1 with Dulbecco's phosphate buffered saline without Ca^++ and Mg^++ (PBS) and layered over 14 mL of Lymphocyte separation media in a 50 ml centrifuge tube. Tubes are then centrifuged for 30 minutes at 600× g. Banded PBLs are gently aspirated from the resulting interface and subsequently washed 2× with PBS by low speed centrifugation. The mononuclear cells are counted, viability determined by Trypan Blue dye exclusion and resuspended in RPM1640 medium supplemented with 15% FBS (heat inactivated), 2 mM L-glutamine, 100 U/mL penicillin, 100 μg/mL streptomycin, and 10 μg/mL gentamycin with 2 μg/mL phytohemagluttin (PHA) at 1×10^6 cells/mL. The cells are cultured for 48 to 72 h at 37° C., 5% CO2 Following incubation, cells are collected by centrifugation, washed and resuspended in RPMI 1640 supplemented with 15% FBS (heat inactivated), 2 Mm L-glutamine, 100 U/mL penicillin, 100 μg/mL streptomycin, and 10 μg/mL gentamycin with 20 U/mL recombinant IL-2 (R & D Systems, Minneapolis, Minn.). IL-2 is included in the culture medium to maintain the cell division initiated by the PHA mitogenic stimulation. The cultures are then maintained until use by ½ culture volume change with fresh IL-2 containing medium every 3 days.
Human peripheral blood mononuclear cells from a minimum of 2 donors, that have been blasted with PHA and IL-2, are counted, viability determined by Trypan Blue dye exclusion and mixed in equal ratios. Pooled donors are used to minimize the variability observed between individual donors which results from quantitative and qualitative differences in HIV infection and overall response to the PHA and IL-2 of primary lymphocyte populations. The cells are resuspended at 1×10^6 cells/mL in RPMI 1640 without phenol red supplemented with 15% Fetal Bovine Serum (heat inactivated), 2 mM L-glutamine, 100 U/mL penicillin, 100 μg/mL streptomycin, 10 μg/mL gentamycin and IL-2 (20 U/mL, R&D Systems, Minneapolis, Minn.). Fifty microliters of cells are then distributed to the inner 60 wells of a 96 well round bottom Microtiter culture plate in a standard format developed by the Infectious Disease Research department of Southern Research Institute. Each plate contains cell control wells (cells only), virus control wells (cell plus virus), and experimental wells (drug plus cells plus virus).
Using an in-house computer program, IC50 (50% inhibition of virus replication), TC50 (50% reduction in cell viability) and a therapeutic index (TI, […]) were determined. AZT was used as a relevant positive control compound for the individual assays.
This study compares the ability of hyaluronidase to AZT to lower viral replication as measured by reverse transcriptase levels. RT was measured on days 7, 14, and 21. Three different treatment regimens were used in the comparative study (Treatments A, B and C).
Treatment A. Normal mixed PHA blasted human PBMCs (5×10e4/well) were pretreated with drug every 48 hours for 3 doses. On day 6 of pretreatment, cells were infected with clinical isolate ROJO. 48 hours post infection, treatment with drugs continued for an additional 3 treatments. Samples for assay were collected on D7 (day 7), 14, 21, post infection, frozen and later analyzed for reverse transcriptase.
Treatment B. Normal mixed PHA blasted human PBMCs (as above) were plated in 96 wells and allowed to incubate for 48 hours (cells were set at same time as treatment A from same pool). Drug pretreatment started on day 2 and was repeated on day 4. On day 6, cell were infected as in treatment A, with concurrent addition of drug for a total of 3 treatments. […]

In the case of `Cc1cn([C@H]2C[C@H](N=[N+]=[N-])[C@@H](CO)O2)c(=O)[nH]c1=O` [AZT, reference compound], the “RT activity % VC” value (Treatment A, 0.00017 μM, Day 7) is reported as 47.3%, the “RT activity % VC” value (Treatment A, 0.00017 μM, Day 14) is reported as 115.4% and the “RT activity % VC” value (Treatment A, 0.00017 μM, Day 21) is reported as 164.5%. The “RT activity % VC” value (Treatment A, 0.00054 μM, Day 7) was 19.3%, the “RT activity % VC” value (Treatment A, 0.00054 μM, Day 14) was 99.8% and the “RT activity % VC” value (Treatment A, 0.00054 μM, Day 21) was 141.5%. The “RT activity % VC” value (Treatment A, 0.00168 μM, Day 7) was 25.1%, the “RT activity % VC” value (Treatment A, 0.00168 μM, Day 14) was 74.2% and the “RT activity % VC” value (Treatment A, 0.00168 μM, Day 21) was 135.6%. The “RT activity % VC” value (Treatment A, 0.00524 μM, Day 7) was 10.2%, the “RT activity % VC” value (Treatment A, 0.00524 μM, Day 14) was 78.3% and the “RT activity % VC” value (Treatment A, 0.00524 μM, Day 21) was 155.1%. The “RT activity % VC” value (Treatment A, 0.01638 μM, Day 7) was 11.6%, the “RT activity % VC” value (Treatment A, 0.01638 μM, Day 14) was 57.9% and the “RT activity % VC” value (Treatment A, 0.01638 μM, Day 21) was 129.5%. For the same compound, the “RT activity % VC” value (Treatment A, 0.0512 μM, Day 7) was 3.0%, the “RT activity % VC” value (Treatment A, 0.0512 μM, Day 14) was 40.7% and the “RT activity % VC” value (Treatment A, 0.0512 μM, Day 21) was 134.8%. The “RT activity % VC” value (Treatment A, 0.16 μM, Day 7) was 2.7%, the “RT activity % VC” value (Treatment A, 0.16 μM, Day 14) was 40.3% and the “RT activity % VC” value (Treatment A, 0.16 μM, Day 21) was 126.3%. For the same compound, the “RT activity % VC” value (Treatment A, 0.5 μM, Day 7) was 2.3%, the “RT activity % VC” value (Treatment A, 0.5 μM, Day 14) was 21.4% and the “RT activity % VC” value (Treatment A, 0.5 μM, Day 21) was 78.3%. For the same compound, the “RT activity % VC” value (Treatment A, 5.5E-05 μM, Day 7) was 77.0%, the “RT activity % VC” value (Treatment A, 5.5E-05 μM, Day 14) was 100.4% and the “RT activity % VC” value (Treatment A, 5.5E-05 μM, Day 21) was 159.7%. The “RT activity % VC” value (Treatment B, 0.00017 μM, Day 7) was 43.6%, the “RT activity % VC” value (Treatment B, 0.00017 μM, Day 14) was 80.8% and the “RT activity % VC” value (Treatment B, 0.00017 μM, Day 21) was 129.8%. The “RT activity % VC” value (Treatment B, 0.00054 μM, Day 7) was 34.2%, the “RT activity % VC” value (Treatment B, 0.00054 μM, Day 14) was 70.1% and the “RT activity % VC” value (Treatment B, 0.00054 μM, Day 21) was 111.8%. For the same compound, the “RT activity % VC” value (Treatment B, 0.00168 μM, Day 7) was 10.7%, the “RT activity % VC” value (Treatment B, 0.00168 μM, Day 14) was 57.5% and the “RT activity % VC” value (Treatment B, 0.00168 μM, Day 21) was 153.5%. The “RT activity % VC” value (Treatment B, 0.00524 μM, Day 7) was 9.3%, the “RT activity % VC” value (Treatment B, 0.00524 μM, Day 14) was 51.0% and the “RT activity % VC” value (Treatment B, 0.00524 μM, Day 21) was 109.0%. For the same compound, the “RT activity % VC” value (Treatment B, 0.01638 μM, Day 7) was 9.6%, the “RT activity % VC” value (Treatment B, 0.01638 μM, Day 14) was 58.0% and the “RT activity % VC” value (Treatment B, 0.01638 μM, Day 21) was 133.9%. The “RT activity % VC” value (Treatment B, 0.0512 μM, Day 7) was 5.4%, the “RT activity % VC” value (Treatment B, 0.0512 μM, Day 14) was 28.5% and the “RT activity % VC” value (Treatment B, 0.0512 μM, Day 21) was 158.0%. The “RT activity % VC” value (Treatment B, 0.16 μM, Day 7) was 3.9%, the “RT activity % VC” value (Treatment B, 0.16 μM, Day 14) was 25.7% and the “RT activity % VC” value (Treatment B, 0.16 μM, Day 21) was 93.8%. For the same compound, the “RT activity % VC” value (Treatment B, 0.5 μM, Day 7) was 5.4%, the “RT activity % VC” value (Treatment B, 0.5 μM, Day 14) was 9.5% and the “RT activity % VC” value (Treatment B, 0.5 μM, Day 21) was 87.5%. For the same compound, the “RT activity % VC” value (Treatment B, 5.5E-05 μM, Day 7) was 90.9%, the “RT activity % VC” value (Treatment B, 5.5E-05 μM, Day 14) was 97.0% and the “RT activity % VC” value (Treatment B, 5.5E-05 μM, Day 21) was 163.3%. The “RT activity % VC” value (Treatment C, 0.00017 μM, Day 7) was 67.5%, the “RT activity % VC” value (Treatment C, 0.00017 μM, Day 14) was 92.9% and the “RT activity % VC” value (Treatment C, 0.00017 μM, Day 21) was 110.1%. For the same compound, the “RT activity % VC” value (Treatment C, 0.00054 μM, Day 7) was 73.6%, the “RT activity % VC” value (Treatment C, 0.00054 μM, Day 14) was 92.3% and the “RT activity % VC” value (Treatment C, 0.00054 μM, Day 21) was 106.2%. The “RT activity % VC” value (Treatment C, 0.00168 μM, Day 7) was 45.4%, the “RT activity % VC” value (Treatment C, 0.00168 μM, Day 14) was 125.4% and the “RT activity % VC” value (Treatment C, 0.00168 μM, Day 21) was 119.1%. The “RT activity % VC” value (Treatment C, 0.00524 μM, Day 7) was 28.4%, the “RT activity % VC” value (Treatment C, 0.00524 μM, Day 14) was 74.6% and the “RT activity % VC” value (Treatment C, 0.00524 μM, Day 21) was 104.7%. The “RT activity % VC” value (Treatment C, 0.01638 μM, Day 7) was 22.1%, the “RT activity % VC” value (Treatment C, 0.01638 μM, Day 14) was 62.9% and the “RT activity % VC” value (Treatment C, 0.01638 μM, Day 21) was 119.2%. For the same compound, the “RT activity % VC” value (Treatment C, 0.0512 μM, Day 7) was 17.0%, the “RT activity % VC” value (Treatment C, 0.0512 μM, Day 14) was 70.5% and the “RT activity % VC” value (Treatment C, 0.0512 μM, Day 21) was 89.2%. For the same compound, the “RT activity % VC” value (Treatment C, 0.16 μM, Day 7) was 10.3%, the “RT activity % VC” value (Treatment C, 0.16 μM, Day 14) was 38.1% and the “RT activity % VC” value (Treatment C, 0.16 μM, Day 21) was 72.0%. For the same compound, the “RT activity % VC” value (Treatment C, 0.5 μM, Day 7) was 8.9%, the “RT activity % VC” value (Treatment C, 0.5 μM, Day 14) was 26.8% and the “RT activity % VC” value (Treatment C, 0.5 μM, Day 21) was 90.1%. The “RT activity % VC” value (Treatment C, 5.5E-05 μM, Day 7) was 88.6%, the “RT activity % VC” value (Treatment C, 5.5E-05 μM, Day 14) was 109.2% and the “RT activity % VC” value (Treatment C, 5.5E-05 μM, Day 21) was 198.4%.
